The values that follow come from patent US20090085344A1, “Organic fluorescent sulfonyl ureido benzoxazinone pigments” (Honeywell International Inc., priority 2007, published 2009).

SMILES strings stand for the structures.

Assay type in all cases: physicochemical
Data set [1] can be described thus: Solubility of the powder in 2-butanone. The settings on record: room temperature. As for the experimental part: (§1) In accordance with the present disclosure, 1-(para-toluenesulfonyl)-3-[2-(4-oxo-4H-benzo[d][1,3]oxazine-2-yl)-phenyl]urea, also named 1-(4-methylphenylsulfonyl)-3-[2-(4-oxo-4H-benzo[d][1,3]oxazine-2-yl)-phenyl]urea, where R^1, R^2, R^3 and R^4 are each hydrogen, and R^5 is 4-methylphenyl, was prepared according to the following procedure: A 250 mL three-neck bottle was charged at room temperature with anthranoylanthranilic acid (0.05 mol) and 100 mL methyl ethyl ketone. Para-toluenesulfonyl isocyanate (0.05 mol) was then added, with stirring, and the reaction mixture was heated under reflux at about 80° C. for about 4 hours. Thereafter, the resulting suspension was cooled to about 40° C., and acetic anhydride (40 mL) was added. The resulting mixture was heated for an additional 3 hours. After cooling to about 10° C., the precipitate was filtered under suction, washed with acetone, and dried at about 50° C. under atmospheric pressure to produce a white powder in about 70% -85% yield. The Emission (fluorescence) maximum of the resultant powder was 526 nm. The excitation maximum is/was 380 nm. […] Intensity of fluorescence of the powder was 350 cd/m^2, as measured with a Minolta luminance meter under 365 nm excitation. Solubility of the powder in 2-butanone was less than 0.5% at room temperature.

Data set [2] in a line: Intensity of fluorescence of the powder, Minolta luminance meter under 365 nm excitation. As for the experimental part:
as §1

A short description of data set [3]: Lightfastness: relative intensities at 0 hours and after 104 hours (FIGS. 1 and 2). The note with it: compared with Lumilux CD 397 and Lumilux CD 302. As for the experimental part: FIG. 1 is a comparative bar graph of the lightfastness of 1-(para-toluenesulfonyl)-3-[2-(4-oxo-4H-benzo[d]-[1,3]oxazine-2-yl)-phenyl]urea (compound 7), as compared with aliphatic ureidobenzoxazinone (UBO)(compound 11), Nitril-AUBO (compound 33), Lumiluxg CD 397, and Lumilux® CD 302, by measuring relative intensities at 0 hours and after 104 hours.
FIG. 2 is a comparative bar graph of the percent (%) loss of intensity of lightfastness of 1-(para-toluenesulfonyl)-3-[2-(4-oxo-4H-benzo[d]-[1,3]oxazine-2-yl)-phenyl]urea (compound 7) relative to compound 11, compound 33, Lumilux® CD 397, and Lumilux® CD 302.
Referring now to the Figures, FIG. 1 illustrates a comparative bar graph of the intensity of lightfastness (in cd/m^2) of 1-(para-toluenesulfonyl)-3-[2-(4-oxo-4H-benzo[d]-[1,3]oxazine-2-yl)-phenyl]urea (compound 7), which is shown relative to various ureido benzoxazinone compounds (UBO), such as aliphatic UBO (compound 11), Nitril-AUBO (compound 33), and Lumilux® CD 397 and Lumilux® CD 302.
FIG. 2 is a comparative bar graph illustrating of the percent loss of intensity of lightfastness of 1-(para-toluenesulfonyl)-3-[2-(4-oxo-4H-benzo[d]-[1,3]oxazine-2-yl)-phenyl]urea (compound 7) compared with ureido benzoxazinone compounds (UBO) such as compound 11, compound 33, Lumilux® CD 397 and Lumiluxg CD 302.

Data set [4] can be described thus: Fluorescence emission and excitation maxima of the powder.
Excerpt: The benzoxazinone compounds of the present disclosure are colorless, and fluoresce in the visible region. More specifically, the benzoxazinone compounds of the present disclosure produce a bright emission in a region from about 520 nm to about 540 nm wavelength when irradiated by UV light energy at about 366 nm wavelength. The benzoxazinone compounds have an excitation maximum at about 340 nm to about 420 nm wavelength.
as §1

For `Cc1ccc(S(=O)(=O)NC(=O)Nc2ccccc2-c2nc3ccccc3c(=O)o2)cc1` [Example 1, 1-(para-toluenesulfonyl)-3-[2-(4-oxo-4H-benzo[d]-[1,3]oxazine-2-yl)-phenyl]urea], the “Solubility of the powder in 2-butanone” value in data set [1] is given as “less than 0.5%”. Also, the “Intensity of fluorescence of the powder” value in data set [2] was found to be 350 cd/m^2. Further, the “degree (intensity) of lightfastness” value in data set [3] (0 hours and after 104 hours) is “greater degree (intensity) of lightfastness”. The “loss of lightfastness intensity” value in data set [3] (after 104 hours) is on record as “lower loss of lightfastness intensity”. Besides, in data set [4], the “Emission (fluorescence) maximum of the resultant powder” value (“Emission (fluorescence) maximum” for short) worked out at 526 nm and the excitation maximum is recorded as 380 nm.

On to `O=C(Nc1ccccc1-c1nc2ccccc2c(=O)o1)NS(=O)(=O)c1ccccc1` [Example 2, 1-(phenylsulfonyl)-3-[2-(4-oxo-4H-benzo[d]-[1,3]oxazine-2-yl)-phenyl]urea], for which the “Solubility of the powder in 2-butanone” value in data set [1] was “less than 0.5%”. The “Intensity of fluorescence of the powder” value in data set [2] is listed as 320 cd/m^2. In data set [4], the “Emission (fluorescence) maximum” value was 528 nm and the excitation maximum turned out to be 380 nm.

`Cc1ccccc1S(=O)(=O)NC(=O)Nc1ccccc1-c1nc2ccccc2c(=O)o1` [Example 3, 1-(2-methylphenylsulfonyl)-3-[2-(4-oxo-4H-benzo[d]-[1,3]oxazine-2-yl)-phenyl]urea]: the “Solubility of the powder in 2-butanone” value in data set [1] is “less than 1%”. Moreover, in data set [2], the “Intensity of fluorescence of the powder” value was found to be 260 cd/M^2. Moreover, in data set [4], the “Emission (fluorescence) maximum” value came out at 530 nm and the excitation maximum worked out at 380 nm.

As for `O=C(Nc1ccccc1-c1nc2ccccc2c(=O)o1)NS(=O)(=O)c1ccc(Cl)cc1` [Example 4, 1-(4-chlorophenylsulfonyl)-3-[2-(4-oxo-4H-benzo[d]-[1,3]oxazine-2-yl)-phenyl]urea], the “Solubility of the powder in 2-butanone” value in data set [1] is on record as “less than 0.5%”. Further, the “Intensity of fluorescence of the powder” value in data set [2] was determined as 330 cd/m^2. Besides, in data set [4], the “Emission (fluorescence) maximum” value turned out to be 539 nm and the excitation maximum turned out to be 380 nm.
